Assays:
[1] = test system: C57BL/6J-Tyr^c-h/c-h mice (OCA1b model); assay: Plasma tyrosine in NTBC-treated Tyr^c-h/c-h (Himalayan) mice; format: in vivo, mouse
Experimental: Drug Dosing and Monitoring.
Plasma tyrosine was assayed from retro-orbital blood taken from mice at 1 week, and 4 weeks into treatment. Because the volume of blood that could be obtained from non-terminal bleeds was small, the plasma from 2-3 mice was pooled to make a single measurement. Plasma samples were frozen immediately after collection on dry ice. Samples ready for assay were gently thawed, diluted with an equal volume of loading buffer (0.2 M lithium citrate, pH 2.2), and filtered using Vivaspin 500 (3000 Da molecular weight cut-off, Sartorius Stedman Biotech, Goettingen, Germany) spun in a fixed angle centrifuge at about 14000×g for 60 minutes at a temperature of about 16-20° C. The supernatant was collected and tyrosine was quantitated on a Biochrom 30 […] (Biochrom, Ltd., Cambridge, UK) using the manufacturer's specifications.
Using the same protocol as described above, baseline plasma tyrosine, coat color (gross and microscopic), anterior segment pigment, and posterior segment pigment was documented for each mouse prior to initiating experiments. […] These treated mice were compared to an age- and gender-matched cohort of C57BL/6J-Tyr^c-h/c-h mice over the same time period. Corneal irritation due to NTBC treatment was monitored daily. At the start of treatment, an area of hair was plucked/shaved from each mouse's back, which has the effect of stimulating new hair growth and possibly new pigment deposition in the hair shaft. At the end of four weeks' time, plasma tyrosine concentrations were assessed in both treated and control animals.

[2] = affected individuals, oral dosing; cited from earlier work
[3] = target: T1, R77L mouse tyrosinase (Mus musculus, UniProt P11344, R77L); assay: Tyrosinase protein stability in CHO cells with cycloheximide, R77L; format: cell-based; conditions: 1 mM tyrosine
T1 construct: expressed in transfected cells; host or cells: CHO cells, pcDNA3.1
T1 sequence (P11344 19-533 R77L): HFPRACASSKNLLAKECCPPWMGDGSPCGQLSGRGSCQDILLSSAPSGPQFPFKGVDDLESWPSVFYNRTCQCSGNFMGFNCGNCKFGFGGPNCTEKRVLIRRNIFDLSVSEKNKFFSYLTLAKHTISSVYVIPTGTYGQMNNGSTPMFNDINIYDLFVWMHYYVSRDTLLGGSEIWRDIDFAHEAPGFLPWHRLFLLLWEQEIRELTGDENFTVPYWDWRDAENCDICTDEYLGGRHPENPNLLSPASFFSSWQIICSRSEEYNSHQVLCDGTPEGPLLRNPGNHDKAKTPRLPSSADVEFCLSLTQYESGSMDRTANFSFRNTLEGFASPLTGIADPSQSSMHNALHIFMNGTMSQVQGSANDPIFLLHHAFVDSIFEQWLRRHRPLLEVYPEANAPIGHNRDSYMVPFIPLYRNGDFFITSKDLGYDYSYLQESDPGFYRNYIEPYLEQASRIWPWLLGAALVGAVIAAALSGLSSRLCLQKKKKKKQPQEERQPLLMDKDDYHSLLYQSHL
Experimental: In Vitro Expression and Enzyme Activity. The expression construct of mouse Tyr was a kind gift of Dr. C. Olivares from the School of Medicine of the University of Murcia (Spain). This construct was prepared in the pcDNA3.1 expression vector (Invitrogen, Carlsbad, Calif.) using EcoRI/XbaI restriction sites and based on the mouse Tyr clone obtained as described previously in C. Olivares, et al., Biochem. J., 354:131 (2001). Constructs of tyrosinase gene mutant variants, with changes corresponding to missense mutations R77L and H420R in the mouse tyrosinase protein sequence, were created using standard methodologies (Mutagenex Inc., Piscataway, N.J.). […]
Chinese hamster ovary cells (CHO) (generous gift from Dr. J. T. Wroblewski from the Pharmacology Department, Georgetown University Medical Center, Washington D.C.) were grown at a temperature of about 37° C. in DMEM media, in the presence of 10% fetal bovine serum, 1% penicillin and 4.5 g […] per 0.5 liter of media. […] The total protein content in protein lysates was determined spectrophotometrically as a 280/260 ratio. Protein expression was analyzed by Western blotting, and GAPDH was used as an internal loading control. For the analysis, Western blots were scanned, intensities of protein bands were determined, and ratios of band intensities for the wild type or mutant variants, to that of GAPDH were calculated. […]

Row | Structure (SMILES) | Plasma tyrosine concentration ([1]; Tyr^c-h (OCA1b model), 4 mg/kg q.o.d. oral, after 30 days, n = 4) | Increase in steady-state plasma tyrosine concentrations ([1]; Tyr^c-h/c-h mice, 4 mg/kg orally every other day, vs control) | Plasma tyrosine concentrations, treated vs control ([1]; Tyr^c-h/c-h mice, dose as in Example 1 (1 mg/kg every other day), one month) | Half-life [2] | Stabilization of R77L mutant tyrosinase protein relative to GAPDH [3]
1 | O=C1CCCC(=O)C1C(=O)c1ccc(C(F)(F)F)cc1[N+](=O)[O-] [NTBC, 2-(-2-nitro-4 trifluoromethylbenzoyl)-1,3 cyclohexanedione] | 305 ± 35 μM (n = 4, | ~4 fold | not statistically significantly different | 50 to 60 h | 
2 | N[C@@H](Cc1ccc(O)cc1)C(=O)O [tyrosine] |  |  |  |  | not statistically significant

From US9364448B2, “Nitisinone for treatment of oculocutaneous/ocular albinism and for increasing pigmentation” (The United States of America, as represented by the …, priority 2010, dated 2016)
